Here are results for 1 molecule from patent US20220184091A1, “Methods of Treating Cancer with Chk1 Inhibitors” (Sierra Oncology, Inc., priority 2019, published 2022).

One data set has as its system CD4+ and CD8+ cells. The data set can be described thus: CD4 and CD8 IHC staining in MC38 tumors. Format: in vivo, mouse. To be noted: after 14 days, SRA737 7-days-on/7-days-off, antibody Days 3, 7 and 11. The procedure:
Measurements were taken post treatment on day 15.
For immunohistochemistry, cryosections (8 μm) of tumor tissues were fixed with acetone and stained with antibody against mouse CD4 (Sinobiological, Cat. no. 50134-R001) and CD8 (eBioscience, Cat. No. 14-0808-82) and horseradish peroxidase-conjugated secondary antibody. The image of the entire stained tumor section was scanned with an Olympus BX41 microscope and a semi-quantitative immunohistochemical score was determined by visual examination of the entire stained section of the tumor. The score between 0-6 was assigned by taking into consideration the intensity of positive staining within the tumor section and the prevalence of positive staining within the entire tumor section.
The MC38 tumors were then harvested after 14 days of treatment with SRA737 monotherapy and its combination therapy with an […] (Days 3, 7 and 11) according to a modified dosing regimen of 7-days-on/7-days-off to determine the infiltration of CD4+ and CD8+ cells by immunohistochemistry staining. […] The tumor growth inhibition under this altered dosing regimen was 61% in SRA737 monotherapy and 63% in the combination therapy of SRA737 and anti-PD-1. […]

A short description of data set [1]: Phase 1 clinical study, SRA737 in combination with gemcitabine, dose escalation. Type of data set: in vivo. To be noted: human, mean. On the procedure:
A Phase 1 clinical trial was conducted in ‘all comers,’ i.e. no genetic selection was performed, to establish safety, tolerability and pharmacokinetics for SRA737 administered in combination with gemcitabine (“Dose Escalation Phase”). Cohorts consisting initially of a single subject received escalating doses of SRA737, starting in Cohort 1 with 40 mg/day administered orally on days 2, 3, 9, 10, 16, and 17 of each 28-day cycle. Cohorts also received various doses of gemcitabine, starting in Cohort 1 with 300 mg/m^2/day administered IV over 30 minutes on days 1, 8, and 15 of each 28-day cycle.
FIG. 5 presents a summary of dosing amounts for the cohorts tested. In the Dose Escalation Phase, a total of 55 subjects received SRA737 in 13 dose escalation cohorts at doses of 40 to 600 mg SRA737 combined with LDG doses of 50 to 300 mg/m^2.

The next data set concerns EMT6/P. The data set can be described thus: Micronuclei assay, EMT6/P. Type of data set: cell-based. To be noted: 1 μM, 24 hours or 48 hours. On the procedure:
H69 cells were cultured as discussed earlier and treated with or without SRA737 (1 μM). Cytochalasin B was added at 20th hour to each culture to give a final concentration of 3 μg/ml and the culture was incubated at 37° C. for up to 24 hrs. After 24 hrs incubation, the cells were centrifuged at 1000 rpm for 5 min. The supernatant was removed and the pellet was treated with weak hypotonic solution (0.075 M KCl/0.9% Saline, 1:9) and incubated at 37° C. for 5 min. After this, the cells were centrifuged and the pellets were fixed in fresh fixative (methanol:acetic acid, 3:1). Cells were dropped onto glass slides were prepared and stained with ProLong® Gold Antifade Mountant with DAPI. In the case of EMT-6 cells, micronuclei formation assays were performed at Phenovista Biosciences, San Diego. The cells were treated with either 1 μM or 5 μM SRA737 for 24h followed by mixing with 4% PFA for 20 minutes at RT directly in the culture wells, washing with PBS and staining with Hoechst (1:1000). The plates were imaged at 40× using the Thermo Fisher Scientific CellInsight CX7 imaging system and the micronuclei algorithm was adjusted to score all nuclei that are <55% of the size of the main nucleus. A total of 25 fields per well were imaged and the data was averaged across 8 replicates.
SRA737 was also evaluated for induced cytogenetic stress using a micronuclei (MN) assay.

Data set [2] addresses T1, Chk1 (Homo sapiens, UniProt O14757).
T1 construct: endogenous in cells
The data set can be described thus: In vitro Chk1 autophosphorylation and potentiation of genotoxic agents. Type of data set: cell-based.

The next data set concerns PD-L1. The data set can be described thus: Western blot of total PD-L1 in SCLC cell lines. To be noted: all SCLC cell lines tested; 1 μM for 72 hours. Type of data set: cell-based. The procedure:
(§1) Western blot analysis was performed using SDS-PAGE followed by transfer to nitrocellulose membrane using the BioRad Gel system. Membranes were incubated in the following primary antibodies (1:1000) overnight: PD-L1 (CST), total and phospho- (S366) STING (CST), total and phospho- (S396) IRF3 (CST), phospho-YH2AX (CST) and Actin (Sigma). Secondary anti-rabbit, HRP-linked antibodies were purchased from Cell Signaling Biosciences and detected using the Chemidoc imaging system mage-captured with Image Studio Version 3.1 software.
Background: In western blotting, separated proteins are transferred to a membrane and probed.

For the next data set, the system named is human hepatocytes. The experiment in a line: Stability and metabolites in cryopreserved hepatocytes, human. To be noted: 10 μM, up to 4 hours. Format: in vitro ADME. On the procedure:
The formation of SRA737-related metabolites was determined in cryopreserved hepatocytes from human, mouse, rat, dog, minipig and monkey samples after incubation with SRA737 at a nominal concentration of 10 μM for up to 4 hours. […] In the human hepatocyte preparation, approximately 67% of the parent remained after 4 hours of incubation compared to 75% and 7% in the rat and minipig preparations, respectively. Eight human SRA737 metabolites were observed. All SRA737 metabolites formed by human hepatocytes were also formed by monkey hepatocytes. Six metabolites were present at equal or greater abundance in the monkey.

Another data set relates to STING pathway. The experiment in a line: Western blot of STING pathway markers in SCLC cell lines. Type of data set: cell-based. To be noted: H1694 and H847 cell lines; 1 μM; 24 and 72 hours. On the procedure:
as §1

A short description of data set [3]: Excretion of SRA737 in mice. Type of data set: in vivo, mouse. To be noted: 24-hour collection. The procedure:
The excretion of SRA737 has been studied in mice and rats administered SRA737 at either 5 mg/kg IV or 10 mg/kg orally. Urine and feces were collected for a 24-hour period after dosing. In mice, renal excretion of intact SRA737 was consistently low (less than 10% of dose) after both oral and IV administration. Following IV administration of SRA737, less than 8% of the dose was recovered as intact drug in the feces while after oral administration this figure was less than 3%. Excretion of intact SRA737 was lower in the rat than in the mouse with <1% of dose excreted renally over 24 hours and less than 1.5% of dose excreted into the feces over 24 hours.

Data set [4] addresses T1, Chk1. To be noted: previously found; Walton et al.; cited from earlier work.
The subject of data set [5] is NSCLC cancer lines (A549, Calu1, Calu6, H1299, H1573, H1944, H1993). The data set can be described thus: Cell viability, NSCLC cancer lines. Format: cell-based. To be noted: read-out: IC50 range.
The mark [6] stands for this setting: 600 mg, Day 10, combination with gemcitabine.

T1 sequence (O14757 whole entry, species assumed): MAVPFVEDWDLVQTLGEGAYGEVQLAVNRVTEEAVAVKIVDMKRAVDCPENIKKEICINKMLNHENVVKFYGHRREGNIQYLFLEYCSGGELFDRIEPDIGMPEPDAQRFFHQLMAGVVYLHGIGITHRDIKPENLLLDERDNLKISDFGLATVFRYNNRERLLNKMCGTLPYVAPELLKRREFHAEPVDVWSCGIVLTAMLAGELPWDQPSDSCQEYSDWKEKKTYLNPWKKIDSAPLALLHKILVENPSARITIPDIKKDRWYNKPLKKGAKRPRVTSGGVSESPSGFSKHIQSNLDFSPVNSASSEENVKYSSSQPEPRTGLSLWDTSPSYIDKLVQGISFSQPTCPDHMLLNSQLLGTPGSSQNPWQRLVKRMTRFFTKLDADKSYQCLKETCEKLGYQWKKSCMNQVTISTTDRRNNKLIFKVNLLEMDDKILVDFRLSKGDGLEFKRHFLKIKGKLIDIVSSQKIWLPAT

For orientation: Cmax means the highest concentration seen after dosing. For orientation: IC50 means the concentration at which inhibition is half-maximal. As for `N#Cc1cnc(Nc2cc(NCC3CNCCO3)c(C(F)(F)F)cn2)cn1` (stereo not shown) [SRA737, 5-[[4-[[morpholin-2-yl]methylamino]-5-(trifluoromethyl)-2-pyridyl]amino]pyrazine-2-carbonitrile], the “infiltration of CD4+ and CD8+ cells into the tumors” value with CD4+ and CD8+ cells is “significant increase”. For the same molecule, the AUC0-24 in data set [1] (40 mg, Day −7) is 637 ng·h/mL. Moreover, the Cmax in data set [1] (80 mg, Day −7) is 146 ng/mL; in [1] (300 mg, Day −7), 995 ng/mL; in data set [1] (setting [6]) it was 2,109 ng/mL. Further, the AUC0-12 in [1] (setting [6]) was 11,860 ng · h/mL. Moreover, the T1/2 in data set [1] (600 mg, Day −7) is given as 11.1 h. In addition, in the data set on EMT6/P, the micronuclei formation result is “led to micronuclei formation”. Moreover, the “potentiation of the cytotoxicity of genotoxic chemotherapeutic agents and targeted agents” value at Chk1 [2] was “dose-dependent potentiation”. The “total PD-L1 levels” value in the data set with PD-L1 was “significantly increased”. For the same molecule, the “human SRA737 metabolites observed” value in the data set with human hepatocytes is on record as “Eight”. In addition, the “STING pathway (pSTING_S366, STING, pIRF3_S396 and IRF3)” value in the data set with STING pathway is given as “Activation of the STING pathway”. The “dose recovered as intact drug in the feces” value in data set [3] (IV administration) is given as “less than 8 % of dose”; in [3] (oral administration), “less than 3 % of dose”. Besides, on Chk1 [4], the “off-target activity against other kinases” value was “limited off-target activity against other kinases”. In data set [5], the IC50 is no less than 800 nM.
